Measurements as given in patent US20230172200A1, “A LIQUID ANTI-PATHOGENIC AGRICULTURAL COMPOSITION” (ORO AGRI INC., priority 2019, published 2023).

Experiment: Paraffin wax solubility test
Assay type: physicochemical
Conditions: 2.0 g paraffin wax in 98 g solvent, 25 °C; for Dissolution Time: stirring at 350 rpm; for Observation: up to 24-hours stirring
From the text: A method to evaluate the capability of a solvent to dissolve paraffin wax was developed and it helps to understand how will be performed certain solvent when applied to an epicuticular surface of a plant or an insect.

| Dissolution Time [min] | Observation | Structure (SMILES) |
| --- | --- | --- |
| – | stable at 25° c. | CCCCCCCCCCCCCC(=O)OC(C)C [isopropyl myristate] |
| – | undissolved after | CC1COC(=O)O1 (stereo not shown) [propylene carbonate] |
| – | undissolved after | OCC1CCCO1 (stereo not shown) [tetrahydrofurfural alcohol] |
| 300 | stable at 25° c. | CCCCCCCCCCCC(=O)OC [methyl laurate] |

More lines, now with the values behind:

| Structure (SMILES) | Dissolution Time [min] | Observation |
| --- | --- | --- |
| CCCCCCCCCCCC(=O)OCC(CC)CCCC (stereo not shown) [2-ethylhexyl laurate] | 930 | stable at 25° c. |
| CCCCCCCCCCCC(=O)OCC(C)C [isobutyl laurate] | 340 | stable at 25° c. |
| CCCCCCCCCC(=O)N(C)C [N,N-dimethyldecanamide] | – | undissolved after |
| CCCCCCCCCCCC(=O)OCCC(C)C [isoamyl laurate] | 620 | stable at 25° c. |
| CCCCCCCCCCCC(=O)OC(C)C [isopropyl laurate] | 102 | stable at 25° c. |
| O=C1CCCCC1 [cyclohexanone] | – | undissolved after |
| C[S+](C)[O-] [dimethyl sulfoxide] | – | undissolved after |
